According to article PMC11414412, “Design and synthesis new indole-based aromatase/iNOS inhibitors with apoptotic antiproliferative activity” (Frontiers in Chemistry, 2024):

Key:
Caspase-8 = Caspase-8 activation assay; assay type: cell-based, human; details: A-594 cells; for Caspase-8 Fold change: at IC50 concentration, vs untreated control; for Caspase-8 Conc: compound at its IC50 concentration
Protocol: When cells get specific signal instructions, they undergo apoptosis, which results in several significant changes. Caspases, considered the main workers in apoptosis, are activated early in the process, cleaving critical cellular components such as nuclear proteins like DNA repair enzymes or structural proteins found in the cytoskeleton that are required for optimal cellular function.
4.2.6. Caspase-8 activation assay […]
caspase8, and lysed with Cell Extraction Buffer. This lysate was diluted in Standard Diluent Buffer over the range of the assay and measured for human active caspase-8 content. (Cells are Plated in a density of 1.2 – 1.8 × 10,000 cells/well in a volume of 100µl complete growth medium + 100 ul of the tested compound per well in a 96-well plate for 24 hours before the enzyme assay for Tubulin.). The absorbance of each microwell was read on a spectro-photometer at 450 nm. A standard curve is prepared from 7human Caspase-8 standard dilutions and human Caspase-8 concentration determined. […]

Bax = Bax activation assay; assay type: cell-based, human; details: lung (A-549) cancer cells; for Bax Fold change: at IC50, vs untreated control; for Bax Conc: compound at IC50
Protocol: Cells were obtained from American Type Culture Collection, cells were grown in RPMI 1640 containing 10% fetal bovine serum at 37°C, stimulated with the compounds to be tested for caspase8, and lysed with Cell Extraction Buffer. This lysate was diluted in Standard Diluent Buffer over the range of the assay and measured for human active caspase-8 content. […]
4.2.7. Bax activation assay
Bring all reagents, except the human Bax-α Standard, to room temperature for at least 30 minutes prior to opening. The human Bax-α Standard solution should not be left at room temperature for more than 10 minutes. All standards, controls and samples should be run in duplicate. Refer to the Assay Layout Sheet to determine the number of wells to be used and put any remaining wells with the desiccant back into the pouch and seal the ziploc. Store unused wells at 4 °C. Pipet 100 μL of Assay Buffer into the S0 (0 pg/mL standard) wells. Pipet 100 μL of Standards #1 through #6 into the appropriate wells. Pipet 100 μL of the Samples into the appropriate wells. Tap the plate gently to mix the contents. Seal the plate and incubate at room temperature on a plate shaker for 1 hour at ~500 rpm. Empty the contents of the wells and wash by adding 400 μL of wash solution to every well. Repeat the wash 4 more times for a total of 5 washes. After the final wash, empty or aspirate the wells and firmly tap the plate on a lint free paper towel to remove any remaining wash buffer.
Pipet 100 μL of yellow Antibody into each well, except the Blank. Seal the plate and incubate at room temperature on a plate shaker for 1 hour at ~500 rpm. Empty the contents of the wells and wash by adding 400 μL of wash solution to every well. Repeat the wash 4 more times for a total of 5 washes. After the final wash, empty or aspirate the wells and firmly tap the plate on a lint free paper towel to remove any remaining wash buffer. Add 100 μL of blue Conjugate to each well, except the Blank. Seal the plate and incubate at room temperature on a plate shaker for 30 minutes […]
Pipet 100 μL of Substrate Solution into each well. Incubate for 30 minutes at room temperature on a plate shaker at ~500 rpm. Pipet 100 μL Stop Solution to each well. Blank the plate reader against the Blank wells, read the optical density at 450 nm. Calculate the average net Optical Density (OD) bound for each standard and sample by subtracting the average Blank OD from the average OD for each standard and sample. Using linear graph paper, plot the Average Net OD for each standard versus Bax concentration in each standard. Approximate a straight line through the points.
The concentration of Bax in the unknowns can be determined by interpolation. […]

Caspase-3 = Caspase-3 activation assay; assay type: cell-based, human; details: A-594 cells; for Caspase-3 Fold change: at IC50 concentration, vs untreated control; for Caspase-3 Conc: compound at its IC50 concentration
MCF-10A cells = assay: Cell viability assay (MTT) on normal mammary epithelial cells; assay type: cell-based, human; details: MCF-10A normal cells, 50 µM, 4 days incubation
Protocol: This test investigates the effects of the new compounds 3–16 on normal cell lines to determine their safety. The normal human mammary gland epithelial (MCF-10 A) cell line was used to test the viability of the tested compounds. After 4 days of incubation on MCF-10 A cells within 50 µM of each investigated compound, cell viability was determined using the MTT assay ([Gomaa et al., 2020]; [Marzouk et al., 2020]).
The normal human mammary gland epithelial (MCF-10A) cell line was used to test the viability of the tested compounds. After 4 days of incubation on MCF-10A cells within 50 µM of each investigated compound, cell viability was determined using the MTT assay ([Gomaa et al., 2020]; [Marzouk et al., 2020]). Refer to Supplementary Appendix SA1 (supp. File) for more details.
4.2. Biological evaluation
4.2.1 Cell Viability assay (MTT assay)
MTT assay was performed to investigate the effect of the synthesized compounds on mammary epithelial cells (MCF-10A). The cells were propagated in medium consisting of Ham's F-12 medium/ Dulbecco's modified Eagle's medium (DMEM) (1:1) supplemented with 10% foetal calf serum, 2 mM glutamine, insulin (10 μg/mL), hydrocortisone (500 ng/mL) and epidermal growth factor (20 ng/mL). Trypsin ethylenediamine tetra acetic acid (EDTA) was used to passage the cells after every 2-3 days. 96-well flat-bottomed cell culture plates were used to seed the cells at a density of 10^4 cells mL-1. The medium was aspirated from all the wells of culture plates after 24 h followed by the addition of synthesized compounds (in 200 μL medium to yield a final concentration of 0.1% (v/v) dimethyl sulfoxide) into individual wells of the plates. Four wells were designated to a single compound. The plates were allowed to incubate at 37°C for 96 h. Afterwards, the medium was aspirated and 3-[4,5-dimethylthiazol-2-yl]-2,5-diphenyltetrazolium bromide (MTT) (0.4 mg/mL) in medium was added to each well and subsequently incubated for 3 h. The medium was aspirated and 150 μL dimethyl sulfoxide (DMSO) was added to each well. The plates were vortexed followed by the measurement of absorbance at 540 nm on a microplate reader. The results were presented as inhibition (%) of proliferation in contrast to controls comprising 0.1%

| melting point [°C] | SMILES | Caspase-8 Fold change (Caspase-8) | Caspase-8 Conc (Caspase-8) [ng/mL] | Bax Fold change (Bax) | Bax Conc (Bax) [pg/mL] | Caspase-3 Fold change (Caspase-3) | Caspase-3 Conc (Caspase-3) [pg/mL] | Cell viability % (MCF-10A cells) |
| --- | --- | --- | --- | --- | --- | --- | --- | --- |
| 180 to 182 | CCc1c2cc(Cl)ccc2n2c(C)c(C(=O)OCc3ccccc3)[nH]c(=O)c12 [Compound 5, benzyl 8-chloro-10-ethyl-4-methyl-1-oxo-1,2-dihydropyrazino [1,2-a]indole-3-carboxylate] | – | – | – | – | – | – | – |
| – | CCc1c2cc(Cl)ccc2n2cc(-c3ccccc3)[nH]c(=O)c12 [Compound 16, 8-Chloro-10-ethyl-3-phenylpyrazino [1,2-a]indol-1(2H)-one] | 25 | 2.25 ± 0.18 | 35 | 315 ± 3 | 8 | 530 ± 5 | no effect |
| – | CCc1c2cc(Cl)ccc2n2cc(Cc3ccccc3)n(C)c(=O)c12 [Compound 12, 3-Benzyl-8-chloro-10-ethyl-2-methylpyrazino[1,2-a]indol-1(2H)-one] | 29 | 2.60 ± 0.20 | 41 | 368 ± 3 | 9 | 580 ± 5 | no effect |
